Earlier results as cited in US20160000716A1, “METHOD OF TREATING VITAMIN B12 DEFICIENCY” (Pharmaceutical Productions Inc., priority 2013, published 2016).

Conditions: over a wide dosing range, independent of the presence of intrinsic factor

## Vitamin B-12
  Fraction of oral Vitamin B-12 absorbed: approximately 1.2%
